Laboratory results as given in patent US20090239860A1, “NOVEL BENZOFURAN DERIVATIVE, MEDICINAL COMPOSITION CONTAINING THE SAME, AND USES OF THESE” (priority 2004, published 2009).

What follows are compounds tested against T1, human adenosine A2A receptor (Homo sapiens, UniProt P29274) (assay: Measurement of antagonistic action for human adenosine A2A receptor (inhibition of NECA-induced cAMP production in transfected CHO-K1 cells)). Conditions: human adenosine A2A receptor-expressed CHO-K1 cells, Ki from IC50 and Km for NECA.
T1 construct: expressed in transfected cells; host or cells: CHO-K1 (Chinese hamster ovary-K1), transient transfection with Lipofectamine 2000
Assay type: cell-based
Experimental: Measurement of Antagonistic Action for Human Adenosine A2a Receptor
1) Preparation of Human Adenosine A2a Receptor-Expressed Cells
When Chinese hamster ovary-K1 (CHO-K1) cells were grown to subconfluence, they were treated with trypsin and suspended in D-MEM/F-12 medium (Invitrogen) including 10% fetal bovine serum (Sankojunyaku). The expression vector of human adenosine A2A receptor prepared in OPTI-MEM I (Invitrogen) and the transfection reagent of Lipofectamine 2000 (Invitrogen) were added to the cell suspension, and those cells were inoculated in poly-D-lysine-coated 96-well plates (5×10^4 cells/well). After incubating the plates for 24-30 hours at 37° C. in a humidified atmosphere with 5% CO2, they were used for the subsequent assays.
2) Measurement of the Inhibitory Effect on Human Adenosine A2a Receptor Activity
A test compound was dissolved in dimethyl sulfoxide (DMSO) and the resulting solution was added to D-MEM/F-12 medium supplemented with 2.5 unit/mL adenosine deaminase (Carbiochem) and 30 μM rolipram (Sigma), a phosphodiesterase inhibitor to prepare a solution of the test compound. Adenosine deaminase was used for the inactivation of adenosine derived from the cells.
The human adenosine A2A-expressed cells inoculated in the 96-well plates were washed twice with 150 μL/well of D-MEM/F-12 medium and a 50-μL aliquot of the test compound solution was then added to each well of the plates. After incubating the cells for 10 minutes at 37° C. in a humidified atmosphere with 5% CO2, a 50-μL aliquot of 1.2 nM 5′-N-ethylcarboxyamideadenosine (NECA; Sigma) including 2.5 unit/mL adenosine deaminase and 30 μM rolipram was added to each well of the plates and incubated for 25 minutes at 37° C. in a humidified atmosphere with 5% CO2. Stopping the reaction and the subsequent measurement of cAMP were performed by use of a cAMP enzyme-linked immunosorbent assay kit (Applied Biosystem). The chemoluminescence was measured by a Microplate Luminometer TR717 (Applied Biosystem). The experiments were carried out in duplicate wells.
Inhibitory rate of a test compound for NECA-induced cAMP production was found by the following formula:
Inhibitory rate (%)=[1−{(cAMP level with a test compound and NECA)−(cAMP level without a test compound and NECA)}/{(cAMP level with NECA)−(cAMP level without a test compound and NECA)}]×100
Using a Km value for NECA found by the measurement in the same plate as that of test compounds, an inhibitory constant Ki was found by the following formula: […]

T1 sequence (P29274 whole entry): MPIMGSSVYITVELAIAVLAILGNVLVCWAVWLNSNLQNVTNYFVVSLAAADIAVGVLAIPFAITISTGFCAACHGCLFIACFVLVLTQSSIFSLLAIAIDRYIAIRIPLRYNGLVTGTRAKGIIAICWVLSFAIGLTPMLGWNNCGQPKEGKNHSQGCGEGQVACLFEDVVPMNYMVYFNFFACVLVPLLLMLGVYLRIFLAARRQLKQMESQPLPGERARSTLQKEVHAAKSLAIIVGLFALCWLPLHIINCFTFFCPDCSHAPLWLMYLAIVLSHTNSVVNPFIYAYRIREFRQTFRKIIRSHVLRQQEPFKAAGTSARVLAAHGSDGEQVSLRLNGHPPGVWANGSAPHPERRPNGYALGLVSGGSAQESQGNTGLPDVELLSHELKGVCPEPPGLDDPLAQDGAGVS

Compound	Ki [nM]
NC(=O)c1oc2ccc(F)cc2c1NC(=O)C1CC1 [Compound 1-1, 3-Cyclopropanecarbonylamino-5-fluorobenzofuran-2-carboxamide]	8.5
NC(=O)c1oc2ccc(Cl)cc2c1NC(=O)C1CC1 [Compound 1-2, 3-Cyclopropanecarbonylamino-5-chlorobenzofuran-2-carboxamide]	4.1
COc1ccc2c(NC(=O)c3cccc(F)c3)c(C(N)=O)oc2c1 [Compound 1-15]	6.5
COc1ccc2c(NC(=O)c3ccc(F)cc3)c(C(N)=O)oc2c1 [Compound 1-16]	0.9
Cc1cccc(C(=O)Nc2c(C(N)=O)oc3ccc(F)cc23)c1 [Compound 1-36]	6.4
NC(=O)c1oc2cc(F)ccc2c1NC(=O)c1ccc2c(c1)OCO2 [Compound 1-91]	6.5
NC(=O)c1oc2ccc(Cl)cc2c1NC(=O)c1ccco1 [Compound 1-108]	9.3
NC(=O)c1oc2c(F)cc(F)cc2c1NC(=O)c1ccco1 [Compound 1-109]	2.7
Cc1ccc(C(=O)Nc2c(C(N)=O)oc3c(F)cc(F)cc23)o1 [Compound 1-119]	1.9
CCc1ccc(C(=O)Nc2c(C(N)=O)oc3ccc(F)cc23)o1 [Compound 1-121]	0.8
CCc1ccc(C(=O)Nc2c(C(N)=O)oc3c(F)cc(F)cc23)o1 [Compound 1-125]	1.2
COc1ccc2c(NC(=O)c3ccc(-c4ccccc4)o3)c(C(N)=O)oc2c1 [Compound 1-133]	3.2
NC(=O)c1oc2cc(F)ccc2c1NC(=O)c1ccc(Oc2ccccc2)nc1 [Compound 1-138]	4.5
COCC(=O)Nc1c(C(N)=O)oc2cc(OC)ccc12 [Compound 1-141]	9.3
NC(=O)c1oc2ccc(F)cc2c1NC(=O)COc1ccc(Cl)cc1 [Compound 1-145]	2.7
NC(=O)c1oc2ccc(F)cc2c1NC(=O)COCc1ccccc1 [Compound 1-150]	2.2
NC(=O)c1oc2cc(Cl)ccc2c1NC(=O)C1CC1 [Compound 1-153]	9.2
NC(=O)c1oc2c(F)cc(F)cc2c1NC(=O)C1CC1 [Compound 1-155]	8.1
NC(=O)c1oc2c(Cl)cc(F)cc2c1NC(=O)C1CC1 [Compound 1-156]	9.8
COc1cc(F)cc2c(NC(=O)C3CC3)c(C(N)=O)oc12 [Compound 1-159]	3.3
NC(=O)c1oc2c(F)cc(F)cc2c1NC(=O)C1CCC1 [Compound 1-161]	7
COc1ccc(C(=O)Nc2c(C(N)=O)oc3c(OC)cc(F)cc23)cc1 [Compound 1-213]	2.1
NC(=O)c1oc2c(F)cc(F)cc2c1NC(=O)Cc1ccccc1 [Compound 1-249]	4.6
CN1CCN(C(=O)c2cccc(C(=O)Nc3c(C(N)=O)oc4c(F)cc(F)cc34)c2)CC1 [Compound 1-275]	0.5
COc1ccc2c(NC(=O)c3cccc(CN4CCN(c5ccccc5)CC4)c3)c(C(N)=O)oc2c1 [Compound 2-1, 6-Methoxy-3-[3-(4-phenylpiperazin-1-ylmethyl)benzoylamino]-benzofuran-2-carboxamide]	8
COc1ccc2c(NC(=O)c3ccc(CSc4nccn4C)cc3)c(C(N)=O)oc2c1 [Compound 2-7]	8.6
NC(=O)c1oc2c(F)cc(F)cc2c1NC(=O)c1ccc(CN2CCN(Cc3ccccc3)CC2)o1 [Compound 2-129]	1.6
NC(=O)c1oc2c(F)cc(F)cc2c1NC(=O)c1ccc(CN2CCN(Cc3ccc4c(c3)OCO4)CC2)o1 [Compound 2-138]	2
CC(C)(C)OC(=O)N1CCN(Cc2ccc(C(=O)Nc3c(C(N)=O)oc4c(F)cc(F)cc34)o2)CC1 [Compound 2-142, tert-butyl 4-[5-(2-carbamoyl-5,7-difluoro-benzofuran-3-ylcarbamoyl)furan-2-ylmethyl]piperazine-1-carboxylate]	2
CC(O)c1ccc(C(=O)Nc2c(C(N)=O)oc3ccc(F)cc23)o1 (stereo not shown) [Compound 6-2, 5-Fluoro-3-[5-(1-hydroxyethyl)furan-2-carbonyl]-aminobenzofuran-2-carboxamide]	1.1

The compounds below were run on Haloperidol-induced catalepsy in rats (assay: Haloperidol-induced catalepsy in rats (horizontal bar test)). Conditions: male rats; compound 10 mg/kg orally in PEG400 2 hours before measurement; 5 hours after 1 mg/kg i.p. haloperidol; maximum 180 seconds (control 180.0).
Assay type: in vivo, rat
Experimental: Haloperidol-Induced Catalepsy in Rats
The effect of a compound on drug-induced catalepsy in rats was evaluated. Parkinson's disease is a movement disorder reflecting a decline in striatal dopamine due to the degeneration of dopaminergic neuron arising from the sbstantia nigra. When haloperidol, a blocker of dopamine D2 receptor is administered in rats, the drug induces catalepsy which is considered as one of the Parkinson's disease-like symptoms since haloperidol blocks the neurotransmission of dopaminergic neuron. Male rats (Crj: CD(SD)IGS, bodyweight: 210-260 g, Charles River Japan, Inc.) were used for the experiments. Three to five rats for each group were tested for catalepsy 5 hours after intraperitoneal administration of 1 mg/kg haloperidol (Serenace (registered mark); Dainippon Pharma), a dopamine D2 antagonist. Catalepsy was measured using the horizontal bar test (Morelli and Chiara, “Eur. J. Pharmacol.”, vol. 117, p. 179-185 (1985)). A compound (10 mg/kg) was dissolved in PEG400 and administered orally 2 hours prior to the measurement of catalepsy. PEG400 was also administered orally to the rats for the control group. The front feet of the rats were placed on a horizontal bar (3 mm in diameter) suspended 10-12 cm above a platform and their rear feet were placed on the platform. The degree of catalepsy produced in the rats was measured by how long it took for their front feet to remove themselves from the bar. A maximum of 180 seconds was allowed.

Compound	Duration of catalepsy [s]
NC(=O)c1oc2ccc(Cl)cc2c1NC(=O)C1CC1 [Compound 1-2, 3-Cyclopropanecarbonylamino-5-chlorobenzofuran-2-carboxamide]	91.6
COc1ccc2c(NC(=O)c3ccc(F)cc3)c(C(N)=O)oc2c1 [Compound 1-16]	116.4
CCc1ccc(C(=O)Nc2c(C(N)=O)oc3ccc(F)cc23)o1 [Compound 1-121]	48.2
NC(=O)c1oc2c(F)cc(F)cc2c1NC(=O)C1CC1 [Compound 1-155]	38.3
